Laboratory results published in patent US8617563B2, “Antichlamydial agents” (Duke University, priority 2011, dated 2013).
Where no end group is shown, it is not given here.

Columns and labels:
IL-8 secretion = IL-8 secretion by infected HeLa cells (ELISA); format: cell-based, human; conditions: peptide 12.5 μM at 12 hpi, measured 24 hpi
Experimental: FIG. 9 depicts (A) CPAF inhibitory peptides block the generation of Chlamydia infectious particles. L2-infected HeLa cells were treated at 12 hpi with increasing concentration of peptides. EBs were harvested at 30 hpi and inclusion-forming units (IFU) were quantified on fresh cell monolayers. (B-D) CPAF activity is required to maintain inclusion integrity. The integrity of the inclusion was determined by assessing the immunolocalization of the inclusion membrane marker IncA (red) and Chlamydia (green) (B) and by transmission electron microscopy (C). […] (D) The percentage of vimentin-positive inclusions was determined by IF in infected cells treated with SEQ ID NO:7 and SEQ ID NO:11 (12 hpi) peptides at 24 hpi. (E) Activation of inflammatory cytokines upon inhibition of CPAF activity. Levels of IL-8 supernatants from Chlamydia infected cells treated with peptides as in (B-D) were determined at 24 hpi by ELISA.
Next, the mechanism underlying the block in chlamydial replication was assessed by performing microscopy analyses of Chlamydia-infected cells treated with an inhibitor of CPAF (SEQ ID NO:7). […] IL-8 secretion into the media was determined with a Human IL-8 ELISA kit (available from BioLegend).

[1] = test system: C. caviae infected HeLa cells; test: Host cell death (condensed nuclei) in C. caviae infected cells; format: cell-based; conditions: peptide-treated HeLa cells; listed as EQ ID NO:7
Experimental: FIG. 12 depicts (A) low-magnification view of C. trachomatis LGV-L2 infected HeLa monolayers (30 h) treated with SEQ ID NO:7 or SEQ ID NO:11 peptides. (B) The frequency of condensed nuclei in treated cells is dependent on peptide concentration and Chlamydia infection. (C-D) Toxicity of CPAF inhibitors to Chlamydia-infected cells is observed in non-myeloid cells including human embryonic kidney cells HEK293 (C) and mouse embryo fibroblasts (D). […] (F-G) Cell death induced by anti-CPAF peptides requires Caspase-1 activation. HeLa cells infected with C. muridarum were treated with Ac-YVAD-CMK at 2 hpi, SEQ ID NO:7 peptide or SEQ ID NO:11 control peptide at 12 hpi and the percentage of infected cells with condensed nuclei was assessed at 48 hpi (F). Mouse lung fibroblasts (MLF) derived from congenic WT, ICE1^−/− and ASC^−/− animals were infected with C. muridarum and treated with the indicated concentrations of anti peptides 12 hpi. The percentage of infected cells with condensed nuclei was assessed at 48 hpi (G). LGV-L2 inclusions were immunostained with anti-L2 antisera and C. muridarum and C. caviae inclusions were immunostained with an anti-chlamydial LPS monoclonal antibody. Cell death in infected and uninfected cells treated with CPAF inhibitory peptides or control peptides was determined by counting the number of condensed nuclei of ˜1000 cells.

## SLFYSPMVPHFWAELRNHYATSGLKRRRRRRRRR-NH2 [SEQ ID NO:7]
IL-8 secretion
  IL-8 secretion: increased IL-8 secretion
[1]
  Condensed nuclei / cell death in C. caviae infected cells: do not cause cell death
